According to US20240197680A1, “VORUCICLIB DOSING REGIMENS AND METHODS OF TREATMENT INCLUDING THE SAME” (MEI Pharma, Inc., priority 2021, published 2024):
Where two headings read alike, the source gives them in different places.

How the values were obtained:
[1] = pH range solubility in biorelevant media; format: physicochemical
Experimental: In general, voruciclib was more prone to gel at suspension concentrations >5 mg/mL and solubilities >0.5 mg/mL.

Gelling in aqueous media = format: physicochemical
Experimental: Voruciclib can form a gel when dissolved in various media, depending on the other chemicals present. […] In general, voruciclib was more prone to gel at suspension concentrations >5 mg/mL and solubilities >0.5 mg/mL.

[2] = Stability of voruciclib malonate Batch 02MEI06-01-107; format: physicochemical; parameters: key to Organic Impurities by HPLC: RRT 1.05: —: below reporting threshold
Source text: The formulation contains colloidal silicon dioxide. The manufacturing process for this batch was similar to that described in Example 10. Stability study samples were packaged in the containers described in Example 9.

[3] = pKa of voruciclib malonate; format: physicochemical
[4] = Hygroscopicity of voruciclib malonate; format: physicochemical
Solid Tumors [5] = experiment: Monotherapy Phase 1 study in solid tumors, 2 weeks on/1 week off schedule; format: in vivo, human; conditions: 29 pts
[6] = test system: Relapsed/Refractory B-cell malignancies; Relapsed/Refractory AML; format: in vivo, human
Experimental: Study population: Relapsed/Refractory B-cell malignancies; Relapsed/Refractory AML; Dose escalation with standard 3+3 design.
Endpoints: Safety and tolerability, Pharmacokinetics, Biologic correlative studies (BH3 profiling, MCL-1 expression, molecular mutations analysis), Response rates.
Voruciclib single agent dose escalation: 50 mg>100 mg>150 mg>200 mg.
Differentiation syndrome seen in 5 pts (50%) (Increased WBC without increased in blasts, bone pain, pulmonary symptoms; Response to corticosteroids).

[7] = PK of voruciclib, daily dosing continuously (Table 2); format: in vivo, human; conditions: mean; for Accumulation Ratio (AUC0-t): Day 15/Day 1
clinical = conditions: human, in vivo
Source text: Voruciclib half-life is designated as t1/2 in the tables (expressed in hours). […] There is interpatient variability, explaining the outlier values.

[8] = test system: Venetoclax Sensitive and Resistant Cell Lines; experiment: Synergy with venetoclax in cell lines; format: cell-based; conditions: Ven Sensitive and Ven Resistant cell lines
Source text: FIG. 4A: Ven Sensitive; FIG. 4B: Ven Resistant.

[9] = PK of voruciclib, 2 weeks of daily dosing followed by 1 week without dosing in a 21-day cycle (Table 1); format: in vivo, human; conditions: mean
Solid Tumors [10] = experiment: Monotherapy Phase 1 study in solid tumors, daily continuously schedule; format: in vivo, human
c-MYC expression = experiment: Gene biomarkers in Phase 1 daily dosing study: c-MYC expression in solid tumors; format: in vivo, human
[11] = Monotherapy Phase 1 studies in solid tumors: safety profile; format: in vivo, human; conditions: Phase 1 monotherapy
[12] = test system: HCT-116 CRC cell xenograft; conditions: SCID, mouse, in vivo, po, 100 mg/kg
Experimental: Animals were randomized into 2 groups when tumors reached 100 mm diameter. Group A assigned single dosing. […] Drug concentration was measured in tumor and plasma after last dose at the following time points: 0, 4, 8, 24, 48, 72 hrs. […] Concentration of voruciclib in plasma is in units of μg/ml and in μg/g for tumors.

## CN1CC[C@@H](c2c(O)cc(O)c3c(=O)cc(-c4ccc(C(F)(F)F)cc4Cl)oc23)[C@@H]1CO.O=C(O)CC(=O)O [Voruciclib Malonate, (2R,3S)-3-(2-(2-chloro-4-(trifluoromethyl)phenyl)-5,7-dihydroxy-4-oxo-4H-chromen-8-yl)-2-(hydroxymethyl)-1-methylpyrrolidin-1-ium-2-carboxyacetate]
[1]; FEDGAS biorelevant medium, pH 3, fassgf or other biorelevant, thermodynamic from solid, pH 3.0 (FEDGAS), late stage of stomach emptying, read-out: Solubility
  solubility: 11300 µg/mL
[1]; FEDGAS biorelevant medium, pH 4.5, fassgf or other biorelevant, thermodynamic from solid, pH 4.5 (FEDGAS), mid stage of stomach emptying, read-out: Solubility
  solubility: 4350 µg/mL
[1]; FEDGAS biorelevant medium, pH 6, fassgf or other biorelevant, thermodynamic from solid, pH 6.0 (FEDGAS), early stage of stomach emptying, read-out: Solubility
  solubility: 2880 µg/mL
[1]; FaSSGF biorelevant medium, pH 1.6, fassgf or other biorelevant, thermodynamic from solid, pH 1.6 (FaSSGF), Stomach after glass of water, tested in duplicate, read-out: Solubility
  solubility: > 13400 µg/mL
[1]; FaSSIF biorelevant medium, pH 6.5, fassif, thermodynamic from solid, pH 6.5 (FaSSIF), Upper intestine after a glass of water, read-out: Solubility
  solubility: 230 µg/mL
[1]; FeSSIF biorelevant medium, pH 5, fessif, thermodynamic from solid, pH 5.0 (FeSSIF), Upper intestine after a meal, read-out: Solubility
  solubility: < 4 µg/mL
[1]; pH 1.6 (FaSSGF), Stomach after glass of water, tested in duplicate
  solubility: 11050 µg/mL
Gelling in aqueous media; in water or aqueous buffers across the pH range
  gel formation: does not form a gel
[2]; 6-months at 25° C./60% RH or 6-months at 40° C./75% RH
  changes observed after storage: No significant changes
[2]; 25° C./60% RH, 1 months
  Appearance by visual inspection: Light
  Assay by HPLC (% w/w, as is): 96.8 % w/w
  Organic Impurities by HPLC: RRT 0.83: 0.06 % area
  Organic Impurities by HPLC: RRT 0.97: 0.55 % area
  Organic Impurities by HPLC: RRT 0.99: 0.59 % area
  Organic Impurities by HPLC: RRT 1.05: 0.09 % area
  Organic Impurities by HPLC: RRT 1.06: 0.08 % area
  Purity by HPLC: 98.6 % area
  Total Impurities: 1.38 % area
  Water Content by KF: 0.47 % w/w
  XRPD: Crystalline
[2]; 25° C./60% RH, 3 months
  Appearance by visual inspection: Light
  Assay by HPLC (% w/w, as is): 97.3 % w/w
  Organic Impurities by HPLC: RRT 0.83: 0.06 % area
  Organic Impurities by HPLC: RRT 0.97: 0.56 % area
  Organic Impurities by HPLC: RRT 0.99: 0.59 % area
  Organic Impurities by HPLC: RRT 1.05: 0.06 % area
  Organic Impurities by HPLC: RRT 1.06: 0.08 % area
  Purity by HPLC: 98.7 % area
  Total Impurities: 1.36 % area
  Water Content by KF: 0.18 % w/w
  XRPD: Crystalline
[2]; 25° C./60% RH, 6 months
  Appearance by visual inspection: Light
  Assay by HPLC (% w/w, as is): 97.7 % w/w
  Organic Impurities by HPLC: RRT 0.83: 0.05 % area
  Organic Impurities by HPLC: RRT 0.97: 0.52 % area
  Organic Impurities by HPLC: RRT 0.99: 0.58 % area
  Organic Impurities by HPLC: RRT 1.05: 0.05 % area
  Organic Impurities by HPLC: RRT 1.06: 0.08 % area
  Purity by HPLC: 98.7 % area
  Total Impurities: 1.32 % area
  Water Content by KF: 0.36 % w/w
  XRPD: Crystalline
[2]; 25° C./60% RH, Initial
  Appearance by visual inspection: Pale
  Assay by HPLC (% w/w, as is): 96.9 % w/w
  Organic Impurities by HPLC: RRT 0.83: 0.06 % area
  Organic Impurities by HPLC: RRT 0.97: 0.55 % area
  Organic Impurities by HPLC: RRT 0.99: 0.62 % area
  Organic Impurities by HPLC: RRT 1.05: 0.15 % area
  Organic Impurities by HPLC: RRT 1.06: 0.11 % area
  Purity by HPLC: 98.5 % area
  Total Impurities: 1.53 % area
  Water Content by KF: 0.56 % w/w
  XRPD: Crystalline
[2]; 40° C./75% RH, 1 months
  Appearance: Light
  Assay by HPLC (% w/w. as is): 96.4 % w/w
  Organic Impurities by HPLC: RRT 0.83: 0.06 % Area
  Organic Impurities by HPLC: RRT 0.97: 0.56 % Area
  Organic Impurities by HPLC: RRT 0.99: 0.58 % Area
  Organic Impurities by HPLC: RRT 1.05: 0.06 % Area
  Organic Impurities by HPLC: RRT 1.06: 0.08 % Area
  Purity by HPLC: 98.7 % area
  Total Impurities: 1.33 % area
  Water Content by KF: 0.44 % w/w
  XRPD: Crystalline
[2]; 40° C./75% RH, 3 months
  Appearance: Light
  Assay by HPLC (% w/w. as is): 97.3 % w/w
  Organic Impurities by HPLC: RRT 0.83: 0.06 % Area
  Organic Impurities by HPLC: RRT 0.97: 0.56 % Area
  Organic Impurities by HPLC: RRT 0.99: 0.59 % Area
  Organic Impurities by HPLC: RRT 1.05: —
  Organic Impurities by HPLC: RRT 1.06: 0.08 % Area
  Purity by HPLC: 98.7 % area
  Total Impurities: 1.29 % area
  Water Content by KF: 0.14 % w/w
  XRPD: Crystalline
[2]; 40° C./75% RH, 6 months
  Appearance: Light
  Assay by HPLC (% w/w. as is): 97.5 % w/w
  Organic Impurities by HPLC: RRT 0.83: 0.05 % Area
  Organic Impurities by HPLC: RRT 0.97: 0.52 % Area
  Organic Impurities by HPLC: RRT 0.99: 0.58 % Area
  Organic Impurities by HPLC: RRT 1.05: —
  Organic Impurities by HPLC: RRT 1.06: 0.08 % Area
  Purity by HPLC: 98.8 % area
  Total Impurities: 1.24 % area
  Water Content by KF: 0.46 % w/w
  XRPD: Crystalline
[2]; 40° C./75% RH, Initial
  Appearance: Pale
  Assay by HPLC (% w/w. as is): 96.9 % w/w
  Organic Impurities by HPLC: RRT 0.83: 0.06 % Area
  Organic Impurities by HPLC: RRT 0.97: 0.55 % Area
  Organic Impurities by HPLC: RRT 0.99: 0.62 % Area
  Organic Impurities by HPLC: RRT 1.05: 0.15 % Area
  Organic Impurities by HPLC: RRT 1.06: 0.11 % Area
  Purity by HPLC: 98.5 % area
  Total Impurities: 1.53 % area
  Water Content by KF: 0.56 % w/w
  XRPD: Crystalline
[3]; first value listed
  pKa: 6.46
[3]; second value listed
  pKa: 9.59
[3]; third value listed
  pKa: 12.1
[4]
  Hygroscopicity: Non-hygroscopic
[4]; listed as Form 1
  Hygroscopicity: non-hygroscopic

## CN1CC[C@@H](c2c(O)cc(O)c3c(=O)cc(-c4ccc(C(F)(F)F)cc4Cl)oc23)[C@@H]1CO [Voruciclib, (+)-trans-2-(2-chloro-4-trifluoromethylphenyl)-5,7-dihydroxy-8-(2-hydroxymethyl-1-methylpyrrolidin-3-yl)-chromen-4-one]
Solid Tumors [5]
  PR (number of patients): 1
Gelling in aqueous media
  solubility at which more prone to gel: > 500 µg/mL
  suspension concentration at which more prone to gel: > 5 mg/mL
Gelling in aqueous media; pH 1.6 (FaSSGF)
  Gelling: Gelling was observed
Gelling in aqueous media; pH 6.5 (FaSSIF)
  Gelling: Gelling was observed
[6]; AML patients
  Differentiation syndrome (number of pts): 5
  Differentiation syndrome (share of pts): 50%
[6]; human, in vivo
  Cmax and AUC dose dependence: Dose proportional
  volume of distribution: High
[6]; in vivo
  GI toxicity or neutropenia: No GI toxicity or neutropenia
[7]; Day 1, 75 mg
  t½: 21.776 h
[7]; Day 1, 150 mg
  AUC0-∞: 15592.890 ng·h/mL
[7]; Day 1, 250 mg
  AUC0-∞: 16383.699 ng·h/mL
  Cmax: 471.955 ng/mL
[7]; Day 1, 350 mg
  AUC0-24: 10388.095 ng·h/mL
  CL/F: 4.224 L/h
[7]; Day 1, 500 mg
  AUC0-24: 16370.472 ng·h/mL
  AUC0-t: 16370.472 ng·h/mL
  CL/F: 2.107 L/h
[7]; 75 mg
  Accumulation Ratio (AUC0-t): 2.634
[7]; 150 mg
  Accumulation Ratio (AUC0-t): 3.637
[7]; 250 mg
  Accumulation Ratio (AUC0-t): 3.090
[7]; 350 mg
  Accumulation Ratio (AUC0-t): 2.767
[7]; 500 mg
  Accumulation Ratio (AUC0-t): 2.577
[7]; Day 15, 75 mg
  AUC0-∞: 27200.362 ng·h/mL
[7]; Day 15, 150 mg
  AUC0-24: 16642.661 ng·h/mL
  AUC0-t: 16642.661 ng·h/mL
  AUC0-∞: 164073.250 ng·h/mL
  t½: 131.733 h
[7]; Day 15, 250 mg
  Cmax: 1047.832 ng/mL
  t½: 38.750 h
[7]; Day 15, 350 mg
  AUC0-∞: 164113.625 ng·h/mL
  CL/F: 1.607 L/h
[7]; Day 15, 500 mg
  AUC0-24: 40465.337 ng·h/mL
  AUC0-t: 40465.337 ng·h/mL
  AUC0-∞: 108301.704 ng·h/mL
  CL/F: 1.031 L/h
clinical
  additional time to clear from the tissue after it clears the plasma: 3 days
  half-life: 120 to 240 h
[8]
  synergy with Venetoclax: Synergizes
[9]; Day 1, 600 mg
  t½: 32.544 h
[9]; Day 13, 300 mg
  AUC0-∞: 59331.780 ng·h/mL
  t½: 16.166 h
[9]; Day 13, 850 mg
  t½: 22.380 h
Solid Tumors [10]
  duration of SD, median: 15 weeks
c-MYC expression
  patients with decreased c-MYC expression / patients tested: 17/25
[11]
  most common AEs: involved GI tract
  myelosuppression: no evidence of myelosuppression
[12]
  level in tumor at 8 hours compared to 24 hours post dosing: > 5 fold
